According to patent US20140134730A1, “METHOD FOR INHIBITING CELL PROLIFERATION BY OXIDATIVE STRESS” (KYOWA HAKKO KIRIN CO., LTD, priority 2012, published 2014):

Tested on: SNU-16
Assay: Western blot analysis of DNA damage (H2A.X Phospho-Ser139)
Format: cell-based
Conditions: 8 hours, KM4008HV2LV3 10 μg/mL, H2O2 50 μM
Procedure: Anti-phospho-Histone H2A.X Ser139, clone JBW301 (Millipore Catalog No. 05-636) as a primary antibody and anti-mouse IgG, HRP-linked antibody (CST Catalog No. 7076) as a secondary antibody were used.
SNU-16 was seeded in 10 mL of the assay medium at a density of 2×10^4 cells/mL, and cultured at 37° C. under the conditions of 5% CO2 for 24 hours. Then, KM4008HV2LV3 (final concentration of 10 μg/mL), the solvent solution of antibody, or hydrogen peroxide (H2O2) (final concentration of 50 μM) was added. The cells were left at 37° C. under the conditions of 5% CO2 for 8 hours, and the suspending cells were recovered together with the culture supernatant.
The adherent cells were washed with D-PBS(−) (manufactured by Nacalai Tesque, Catalog No. 14249-95), and then 1.5 mL of TrypLE select (manufactured by Invitrogen, Catalog No. 12563-011) was added and left at 37° C. under the conditions of 5% CO2 for 5 minutes for detachment, and then mixed with the suspending cells recovered in advance to be used in the subsequent manipulations. […]
The cell lysate thus obtained was left on ice for 15 minutes, followed by centrifugation at 15,000 rpm for 15 minutes. The protein concentration in the supernatant thus obtained was determined using a BCA protein assay kit (manufactured by Pierce, Catalog No. 23225). […]

## OO [H2O2, hydrogen peroxide]
  Phosphorylation signals of H2A.X Ser139 (Western blot) compared to solvent-treated cells: increased
